Molecular target: T1, REV-ERBα LBD (human; residues 281-614 Δ324-422) (Homo sapiens, UniProt P20393, DEL324-422)
T1 construct: 6×Histag-REV-ERBα LBD (human; residues 281-614 Δ324-422); made in house; host or cells: Escherichia coli
Assay: TR-FRET corepressor interaction assay (REV-ERBα LBD, FITC-SMRT peptide)
Assay type: biochemical
Conditions: Table 2, read-out: REVERBα agonism (EC50 class, FRET assay)
Experimental: TR-FRET corepressor interaction assay. The time-resolved fluorescence resonance energy transfer (TR-FRET) assay was performed in black low-volume 384-well plates (Greiner). […] Ligand stocks were prepared via serial dilution in DMSO, added to wells in triplicate, and plates were incubated at 4° C. for 2 h and read using a BioTek Synergy Neo multimode plate reader. The Tb donor was excited at 340 nm; its fluorescence emission was monitored at 495 nm, and the acceptor FITC emission was measured at 520 nm; and the TR-FRET ratio was calculated as the signal at 520 nm divided by the signal at 495 nm. Data were plotted using GraphPad Prism as TR-FRET ratio vs. ligand concentration and fit to sigmoidal dose response curve equation.

T1 sequence (P20393 with tags, fused parts or gaps DEL324-422): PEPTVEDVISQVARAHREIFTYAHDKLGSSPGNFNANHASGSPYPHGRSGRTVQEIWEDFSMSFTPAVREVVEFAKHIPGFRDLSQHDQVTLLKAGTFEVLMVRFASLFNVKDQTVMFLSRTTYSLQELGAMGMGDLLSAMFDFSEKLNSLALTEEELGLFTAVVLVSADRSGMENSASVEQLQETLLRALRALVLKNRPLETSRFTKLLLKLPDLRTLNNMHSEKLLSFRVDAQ
T1 sequence (Q9Y618 2335-2356 partner limits assumed): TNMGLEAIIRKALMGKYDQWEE

SMILES | EC50
CC(C)Cn1cc(CCNS(=O)(=O)N(C)C)c2ccc(-c3ccccc3-c3ccccc3)cc21 [Example 74, N-{2-[6-[(1,1-diphenyl)-2yl]-1-(2-methylpropyl)-1H-indol-3-yl]ethyl}-N,N-dimethylsulfuric diamide] | > 3 µM
CC(C)Cn1cc(CCNS(=O)(=O)N(C)C)c2ccc(-c3ccccc3CO)cc21 [Example 76, N-{2-[6-(2-hydroxylmethylphenyl)-1-(2-methylpropyl)-1H-indol-3-yl]ethyl}-N,N-dimethyl-sulfuric diamide] | 0.5 to 3 µM
CC(C)Cn1cc(CCNS(=O)(=O)N(C)C)c2ccc(-c3ccccc3OCc3ccccc3)cc21 [Example 77, N-{2-[6-(2-benzyloxylphenyl)-1-(2-methylpropyl)-1H-indol-3-yl]ethyl}-N,N-dimethyl-sulfuric diamide] | 0.5 to 3 µM
CC(C)Cn1cc(CCNS(=O)(=O)N(C)C)c2ccc(-c3ccccc3C(=O)OC(C)(C)C)cc21 [Example 79] | 0.5 to 3 µM
Cc1cccc(C)c1-c1ccc2c(CCNS(=O)(=O)N(C)C)cn(CC(C)C)c2c1 [Example 81, N-{2-[6-(2,6-dimethylphenyl)-1-(2-methylpropyl)-1H-indol-3-yl]ethyl}-N,N-dimethyl-sulfuric diamide] | < 0.5 µM
CC(C)Cn1cc(-c2cccc(NS(=O)(=O)C(C)C)c2)c2ccc(-c3ccccc3)cc21 [Example 83, N-(3-(1-isobutyl-6-phenyl-1H-indol-3-yl)phenyl)propane-2-sulfonamide] | > 3 µM
CC(C)Cn1cc(-c2cccc(CNS(=O)(=O)C(C)C)c2)c2ccc(-c3ccccc3)cc21 [Example 86, N-(3-(1-isobutyl-6-phenyl-1H-indol-3-yl)benzyl)propane-2-sulfonamide] | 0.5 to 3 µM
CC(C)Cn1cc(-c2ccc(CNS(=O)(=O)C(C)C)cc2)c2ccc(-c3ccccc3)cc21 [Example 87, N-(4-(1-isobutyl-6-phenyl-1H-indol-3-yl)benzyl)propane-2-sulfonamide] | 0.5 to 3 µM
C=C(C)c1ccc2c(CCNS(=O)(=O)N(C)C)cn(CC(C)C)c2c1 [Example 88] | < 0.5 µM
CC(C)Cn1cc(CCNS(=O)(=O)N(C)C)c2ccc(-n3cccn3)cc21 [Example 92, N-{2-[6-(1H-pyrazol-1-yl)-1-(2-methylpropyl)-1H-indol-3-yl]ethyl}-N,N-dimethylsulfuric diamide] | 0.5 to 3 µM
CC(C)Cn1cc(CCNS(=O)(=O)N(C)C)c2ccc(-n3ccnc3)cc21 [Example 93, N-{2-[6-(1H-imidazol-1-yl)-1-(2-methylpropyl)-1H-indol-3-yl]ethyl}-N,N-dimethylsulfuric diamide] | 0.5 to 3 µM
CC(C)Cn1cc(CCNS(=O)(=O)N(C)C)c2ccc(C(C)(C)C)cc21 [Example 106, ({2-[6-tert-butyl-1-(2-methylpropyl)-1H-indol-3-yl]ethyl}sulfamoyl)dimethylamine] | > 3 µM
CC(C)Cn1cc(CCNS(=O)(=O)N(C)C)c2ccc(C3(O)CCC3)cc21 [Example 107, 1-(3-{2-[(dimethylsulfamoyl)amino]ethyl}-1-(2-methylpropyl)-1H-indol-6-yl)cyclobutan-1-ol] | 0.5 to 3 µM
CC(C)Cn1cc(CCNS(=O)(=O)N(C)C)c2ccc(C3CCC3)cc21 [Example 108, ({2-[6-cyclobutyl-1-(2-methylpropyl)-1H-indol-3-yl]ethyl}sulfamoyl)dimethylamine] | < 0.5 µM
CC(C)Cn1cc(CCNS(=O)(=O)N(C)C)c2ccc(Cl)cc21 [Example 109, ({2-[6-chloro-1-(2-methylpropyl)-1H-indol-3-yl]ethyl}sulfamoyl)dimethylamine] | < 0.5 µM
CC(C)Cn1cc(CCNS(=O)(=O)N(C)C)c2ccc(F)cc21 [Example 110, ({2-[6-fluoro-1-(2-methylpropyl)-1H-indol-3-yl]ethyl}sulfamoyl)dimethylamine] | 0.5 to 3 µM
CC(C)Cn1cc(CCNS(=O)(=O)N(C)C)c2ccc(NC(C)C)cc21 [Example 111, N-{2-[6-isopropylamino-1-(2-methylpropyl)-1H-indol-3-yl]ethyl}-N,N-dimethylsulfuric diamide] | 0.5 to 3 µM
CCNc1ccc2c(CCNS(=O)(=O)N(C)C)cn(CC(C)C)c2c1 [Example 112, N′-{2-[6-ethylamino-1-(2-methylpropyl)-1H-indol-3-yl]ethyl}-N,N-dimethylsulfuric diamide] | > 3 µM
CC(C)Cn1cc(CCNS(=O)(=O)N(C)C)c2ccc(N(C)C)cc21 [Example 113, N′-{2-[6-N,N-dimethylamino-1-(2-methylpropyl)-1H-indol-3-yl]ethyl}-N,N-dimethylsulfuric diamide] | 0.5 to 3 µM

SMILES | EC50
CC(C)Cn1cc(CCN(C)S(=O)(=O)N(C)C)c2ccc(N(C)C)cc21 [Example 114, N′-{2-[6-N,N-dimethylamino-1-(2-methylpropyl)-1H-indol-3-yl]ethyl}-N′-methyl-N,N-dimethyl sulfuric diamide] | 0.5 to 3 µM
CC(C)Cn1cc(CCNS(=O)(=O)N(C)C)c2ccc(OCc3ccccc3)cc21 [Example 115, N′-{2-[6-benzyloxy-1-(2-methylpropyl)-1H-indol-3-yl]ethyl}-N,N-dimethylsulfuric diamide] | 0.5 to 3 µM
CC(C)Cn1cc(CCNS(=O)(=O)N(C)C)c2ccc(O)cc21 [Example 116, N-{2-[6-hydroxy-1-(2-methylpropyl)-1H-indol-3-yl]ethyl}-N,N-dimethylsulfuric diamide] | > 3 µM
COc1ccc2c(CCN(C)S(=O)(=O)N(C)C)cn(CC(C)C)c2c1 [Example 117, N-{2-[6-methoxyl-1-(2-methylpropyl)-1H-indol-3-yl]ethyl}-N-methyl-N,N-dimethyl sulfuric diamide] | > 3 µM
CC(C)Cn1cc(CCNS(=O)(=O)N(C)C)c2ccc(OC(C)C)cc21 [Example 118, N′-{2-[6-isopropoxy-1-(2-methylpropyl)-1H-indol-3-yl]ethyl}-N,N-dimethylsulfuric diamide] | 0.5 to 3 µM
CC(C)Cn1cc(CCNS(=O)(=O)N(C)C)c2ccc(OC(C)(C)C)cc21 [Example 119, N′-{2-[6-tert-butoxy-1-(2-methylpropyl)-1H-indol-3-yl]ethyl}-N,N-dimethylsulfuric diamide] | 0.5 to 3 µM
CC(C)Cn1cc(CCN(C)S(=O)(=O)N(C)C)c2ccc(C(F)(F)F)cc21 [Example 121, dimethyl[methyl({2-[1-(2-methylpropyl)-6-(trifluoromethyl)-1H-indol-3-yl]ethyl})sulfamoyl]amine] | 0.5 to 3 µM
CC(C)Cc1cn(CCN(C)S(=O)(=O)N(C)C)c2ncc(-c3ccncc3)cc12 [Example 125, dimethyl[methyl({2-[3-(2-methylpropyl)-5-(pyridin-4-yl)-1H-pyrrolo[2,3-b]pyridin-1-yl]ethyl})sulfamoyl]amine] | < 0.5 µM
CC(C)Cc1cn(CCN(C)S(=O)(=O)C2CC2)c2ncc(-c3ccncc3)cc12 [Example 126, N-(2-(3-isobutyl-5-(pyridin-4-yl)-1H-pyrrolo[2,3-b]pyridin-1-yl)ethyl)-N-methylcyclopropanesulfonamide] | 0.5 to 3 µM
CN(C)S(=O)(=O)N(C)CCc1cn(C)c2cc(-c3ccncc3)ccc12 [Example 127, N′-{2-[6-(pyridin-4-yl)-1-methyl-1H-indol-3-yl]ethyl}-N′-methyl-N,N-dimethylsulfuric diamide] | 0.5 to 3 µM
CN(C)S(=O)(=O)NCCc1cn(C)c2cc(-c3ccncc3)ccc12 [Example 128, N′-{2-[6-(pyridin-4-yl)-1-methyl-1H-indol-3-yl]ethyl}-N,N-dimethylsulfuric diamide] | 0.5 to 3 µM
CC(C)n1cc(CCNS(=O)(=O)N(C)C)c2ccc(-c3ccncc3)cc21 [Example 129, N′-{2-[6-(pyridin-4-yl)-1-isopropyl-1H-indol-3-yl]ethyl}-N,N-dimethylsulfuric diamide] | 0.5 to 3 µM
CC(C)S(=O)(=O)n1cc(CCNS(=O)(=O)N(C)C)c2ccc(-c3ccncc3)cc21 [Example 130, N′-{2-[6-(pyridin-4-yl)-1-isopropylsulfonyl-1H-indol-3-yl]ethyl}-N,N-dimethylsulfuric diamide] | > 3 µM
CCn1cc(CCNS(=O)(=O)N(C)C)c2ccc(-c3ccncc3)cc21 [Example 132, N′-{2-[6-(pyridin-4-yl)-1-ethyl-1H-indol-3-yl]ethyl}-N,N-dimethylsulfuric diamide] | > 3 µM
CCN(CCc1cn(CC)c2cc(-c3ccncc3)ccc12)S(=O)(=O)N(C)C [Example 133, N′-{2-[6-(pyridin-4-yl)-1-ethyl-1H-indol-3-yl]ethyl}-N′-ethyl-N,N-dimethylsulfuric diamide] | 0.5 to 3 µM
CN(C)S(=O)(=O)NCCc1cn(C2CC2)c2cc(-c3ccncc3)ccc12 [Example 134, N′-{2-[6-(pyridin-4-yl)-1-cyclopropyl-1H-indol-3-yl]ethyl}-N,N-dimethylsulfuric diamide] | > 3 µM
CC(C)Cn1cc(CCNS(=O)(=O)N(C)C)c2cc(Br)ccc21 [Example 135, ({2-[5-bromo-1-(2-methylpropyl)-1H-indol-3-yl]ethyl}sulfamoyl)dimethylamine] | < 0.5 µM
CC(C)Cn1cc(CCNS(=O)(=O)N(C)C)c2c(Br)cccc21 [Example 136, ({2-[4-bromo-1-(2-methylpropyl)-1H-indol-3-yl]ethyl}sulfamoyl)dimethylamine] | 0.5 to 3 µM
CN(C)S(=O)(=O)NCCc1cn(Cc2ccccc2Br)c2cc(-c3ccncc3)ccc12 [Example 140, N′-{2-[6-(pyridin-4-yl)-1-(2-bromobenzyl)-1H-indol-3-yl]ethyl}-N,N-dimethylsulfuric diamide] | > 3 µM
